Assay results reported in ChEMBL document CHEMBL1146662, “Novel inhibitors of bacterial protein synthesis: structure-activity relationships for 1,8-naphthyridine derivatives incorporating position 3 and 4 variants” (Bioorg Med Chem Lett, 2004).
≈ marks a conversion by molar mass, not a printed value.

test system: Escherichia coli; experiment: Antibacterial activity against Escherichia coli; type: functional

Row | MIC | Compound
1 | > 128 µg/mL | NCCNc1ccnc2nc(N3CCCC3)c(F)cc12

test system: Escherichia coli; experiment: Antibacterial activity against Escherichia coli in presence of permeabilizer and EDTA; type: functional

Row | MIC | Compound
2 | 32 µg/mL | NCCNc1ccnc2nc(N3CCCC3)c(F)cc12

test system: Haemophilus influenzae; experiment: Antibacterial activity against Haemophilus influenzae GYR 1435; type: functional

Row | Compound | MIC
3 | O=C(O)c1cnc2nc(N3CCCC3)c(F)cc2c1O | 1 µg/mL (≈ 3.61 µM)
4 | C[C@H]1COc2c(N3CCN(C)CC3)c(F)cc3c(=O)c(C(=O)O)cn1c23.C[C@H]1COc2c(N3CCN(C)CC3)c(F)cc3c(=O)c(C(=O)O)cn1c23.O [LEVOFLOXACIN] | 0.015 µg/mL
5 | NC1CCN(c2nc3ncc(C(=O)O)c(O)c3cc2F)C1 (configuration not stated) | 4 µg/mL (≈ 13.7 µM)

target: not listed separately; experiment: Inhibitory concentration against luciferase synthesis in Streptococcus pneumoniae; type: functional

Row | IC50 | Compound
6 | 23 µM | NC(=O)c1cnc2nc(N3CCC(N)C3)c(F)cc2c1O (configuration not stated)
7 | > 100 µM | CC(C)CCN(C)C(=O)c1cnc2nc(N3CCC(N)C3)c(F)cc2c1O (configuration not stated)
8 | 39 µM | COCCNc1ccnc2nc(N3CCCC3)c(F)cc12
9 | > 100 µM | O=C(O)CNc1ccnc2nc(N3CCCC3)c(F)cc12
10 | > 100 µM | O=Cc1cnc2nc(N3CCCC3)c(F)cc2c1O
11 | 20 µM | CCOC(=O)c1cnc2nc(N3CCC(N)C3)c(F)cc2c1O (configuration not stated)
12 | 50 µM | CC(=O)c1cnc2nc(N3CCC(N)C3)c(F)cc2c1O (configuration not stated)
13 | > 100 µM | O=C(NO)c1cnc2nc(N3CCCC3)c(F)cc2c1O
14 | 25 µM | NC1CCN(c2nc3ncc(CNCc4ccccc4)c(O)c3cc2F)C1 (configuration not stated)
15 | > 100 µM | CC(Nc1ccnc2nc(N3CCCC3)c(F)cc12)c1ccccc1 (configuration not stated)
16 | 25 µM | CC(C)CCNC(=O)c1cnc2nc(N3CCC(N)C3)c(F)cc2c1O (configuration not stated)
17 | > 100 µM | Oc1c(CNCc2ccccc2)cnc2nc(N3CCCC3)c(F)cc12
18 | > 100 µM | Oc1ccnc2nc(N3CCCC3)c(F)cc12
19 | 89 µM | NNc1ccnc2nc(N3CCCC3)c(F)cc12
20 | 18 µM | CN(C)CCN(C)c1ccnc2nc(N3CCCC3)c(F)cc12
21 | > 100 µM | CN(C)CCNCc1cnc2nc(N3CCCC3)c(F)cc2c1O
22 | > 100 µM | Oc1c(CNc2ccccc2)cnc2nc(N3CCCC3)c(F)cc12
23 | 91 µM | OCCNc1ccnc2nc(N3CCCC3)c(F)cc12
24 | > 100 µM | CCOC(=O)c1cnc2nc(N3CCCC3)c(F)cc2c1O
25 | 82 µM | NC(=O)CNc1ccnc2nc(N3CCCC3)c(F)cc12
26 | > 100 µM | OCc1cnc2nc(N3CCCC3)c(F)cc2c1O
27 | 11 µM | NCCNc1ccnc2nc(N3CCCC3)c(F)cc12
28 | 19 µM | CCCNc1ccnc2nc(N3CCCC3)c(F)cc12
29 | 10 µM | CCN(CC)CCCNCc1cnc2nc(N3CCC(N)C3)c(F)cc2c1O (configuration not stated)
30 | > 100 µM | CC(C)NC(=O)c1cnc2nc(N3CCC(N)C3)c(F)cc2c1O (configuration not stated)
31 | 54 µM | NC1CCN(c2nc3ncc(CNc4ccccc4)c(O)c3cc2F)C1 (configuration not stated)
32 | 10 µM | NC1CCN(c2nc3ncc(CNCCCc4ccccc4)c(O)c3cc2F)C1 (configuration not stated)
33 | > 100 µM | Fc1cc2c(N3CCNCC3)ccnc2nc1N1CCCC1

Row | Compound | IC50
34 | O=C(O)c1cnc2nc(N3CCCC3)c(F)cc2c1O | 10 µM
35 | NC1CCN(c2nc3ncc(C(=O)O)c(O)c3cc2F)C1 (configuration not stated) | 5 µM

test system: Streptococcus pneumoniae; experiment: Antibacterial activity against Quinolone-resistant Streptococcus pneumoniae 7257; type: functional

Row | Compound | MIC
36 | O=C(O)c1cnc2nc(N3CCCC3)c(F)cc2c1O | 4 µg/mL (≈ 14.4 µM)
37 | NC1CCN(c2nc3ncc(C(=O)O)c(O)c3cc2F)C1 (configuration not stated) | 32 µg/mL (≈ 109 µM)
